Reference: publication PMC5635798, “Alteration to Dopaminergic Synapses Following Exposure to Perfluorooctane Sulfonate (PFOS), in Vitro and in Vivo” (Medical Sciences, 2016)
pIC50: −log10 of the molar value.

Target: T1, vesicular monoamine transporter 2 (VMAT2) (Homo sapiens, UniProt Q05940)
T1 construct: gene SLC18A2; human VMAT2 stably expressed in HEK293 cells (HEK-hVMAT2), pcDNA3.1
Test: inhibition of vesicular 3H-dopamine uptake in HEK-hVMAT2 cell fractions
Type: biochemical

T1 sequence (Q05940 whole entry): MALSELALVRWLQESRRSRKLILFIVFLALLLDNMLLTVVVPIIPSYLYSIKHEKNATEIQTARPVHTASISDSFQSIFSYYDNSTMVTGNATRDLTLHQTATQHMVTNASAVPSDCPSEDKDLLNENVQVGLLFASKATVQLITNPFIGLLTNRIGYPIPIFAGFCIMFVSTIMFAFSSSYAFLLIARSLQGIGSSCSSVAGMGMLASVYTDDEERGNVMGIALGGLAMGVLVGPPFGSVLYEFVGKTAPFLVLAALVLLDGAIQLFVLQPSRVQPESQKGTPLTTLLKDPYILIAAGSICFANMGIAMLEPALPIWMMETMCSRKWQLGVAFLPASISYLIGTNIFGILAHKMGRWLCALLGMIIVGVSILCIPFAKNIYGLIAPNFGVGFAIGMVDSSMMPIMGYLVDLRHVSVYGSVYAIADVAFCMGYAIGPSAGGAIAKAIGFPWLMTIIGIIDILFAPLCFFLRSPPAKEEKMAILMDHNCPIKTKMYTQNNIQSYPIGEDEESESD

O=S(=O)(O)C(F)(F)C(F)(F)C(F)(F)C(F)(F)C(F)(F)C(F)(F)C(F)(F)C(F)(F)F [PFOS]
pIC50: 5.34
